Where “and” joins values, the source holds several entries; their conditions need not be identical. Equal values may be shown once.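 The compound was tested at five concentrations on cells cultured in 96-well plates, with a 48-hour exposure period. Here, GI50 denotes the concentration required for 50% inhibition of growth. TGI marks complete inhibition of growth.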
Columns and labels:
Assay in all cases: growth of human tumour cells (NCI), 48 h
[1] = tested on: A549 NSCLC
[2] = tested on: HCT-116 colon
[3] = tested on: KM12 colon
[4] = tested on: OVCAR-5 ovarian
[5] = tested on: SK-MEL-28 melanoma
[6] = tested on: UACC-257 melanoma
[7] = tested on: UACC-62 melanoma
[8] = tested on: BT-549 breast
[9] = tested on: NCI-H460 lung
[10] = tested on: U251 CNS

| Compound | GI50 [1] [µM] | TGI [1] | GI50 [2] | TGI [2] | GI50 [3] [µM] | TGI [3] [µM] | GI50 [4] [µM] | TGI [4] | GI50 [5] [µM] | TGI [5] | GI50 [6] [µM] | TGI [6] [µM] | GI50 [7] [µM] | TGI [7] | TGI [8] | TGI [9] [µM] | TGI [10] [µM] | GI50 [9] [µM] | GI50 [10] [µM] | GI50 [8] |
| --- | --- | --- | --- | --- | --- | --- | --- | --- | --- | --- | --- | --- | --- | --- | --- | --- | --- | --- | --- | --- |
| CO[C@]1(CN2CCN3CCCC[C@@H]3C2)/C=C/C[C@H](C)[C@@H](C)S(=O)(=O)NC(=O)c2ccc3c(c2)N(C[C@@H]2CC[C@H]21)C[C@@]1(CCCc2cc(Cl)ccc21)CO3 | 2.75 | 10.6 µM | 2.01 µM | 4.79 µM | 1.73 | 3.25 | 1.93 | 3.8 µM | 1.86 | 3.44 µM | 2.82 | 9.34 | 0.148 | 1.22 µM | – | – | – | – | – | – |
| C=C(C)[C@@H]1CC[C@]2(C(=O)O)CC[C@]3(C)[C@H](CCC4[C@@]5(C)CC[C@H](C(=O)/C=C/c6ccc(O)c(O)c6)C(C)(C)[C@@H]5CC[C@]43C)[C@@H]12 (some centres not stated) | – | > 100 µM | – | > 100 µM | – | 28.2 | – | 26.7 µM | – | – | – | 11 | – | 27.6 µM | > 100 µM | 16.2 | – | – | – | – |
| S=C(NCc1ccccc1)N/N=C/c1ccccn1 | – | > 100 µM | – | 15.4 µM | – | > 100 | – | > 100 µM | – | > 100 µM | – | > 100 | – | 25.1 µM | > 100 µM | > 75.6 | 23.9 | – | – | – |
| O=C(NNCc1ccc(Cl)cc1)Nc1cccc2ccccc12 | – | – | – | > 100 µM | – | > 100 | – | > 100 µM | – | > 100 µM | – | > 100 | – | > 100 µM | > 100 µM | > 100 | > 100 | – | – | – |
| CC(=O)CC(=O)CCC(=O)O | – | > 100 µM | – | > 100 µM | – | > 100 | – | > 100 µM | – | > 100 µM | – | > 100 | – | – | – | > 100 | > 100 | – | – | – |
| Cc1nc(-c2cc3cc(Cl)ccc3oc2=O)cc2c1c(=O)oc1ccc(Cl)cc12 | – | > 100 µM | – | > 100 µM | – | > 100 | – | – | – | > 100 µM | – | > 100 | – | > 100 µM | > 100 µM | > 100 | > 100 | – | – | – |
| CS(=O)(=O)NC12CCC(c3ccccc31)c1ccccc12 | – | > 100 µM | – | > 100 µM | – | > 100 | – | > 100 µM | – | > 100 µM | – | – | – | > 100 µM | > 100 µM | > 100 | > 100 | – | – | – |
| COC(=O)[C@@H]1CN(C(=O)c2ccccc2)C(=O)N1C(=O)OCc1ccccc1 | – | > 100 µM | – | > 100 µM | – | > 100 | – | > 100 µM | – | > 100 µM | – | > 100 | – | > 100 µM | – | > 100 | > 100 | – | – | – |
| CSc1nc(NC(C)C)c2c(n1)Sc1nc3ccccc3n1C2O (configuration not stated) | – | > 100 µM | – | > 100 µM | – | > 100 | – | – | – | > 100 µM | – | > 100 | – | – | > 100 µM | – | > 100 | – | – | – |
| C#CCC1(C(=O)OCC)C(=O)c2ccccc2N(C)C1=O (configuration not stated) | – | – | – | – | – | – | – | – | – | > 100 µM | – | – | – | > 100 µM | – | > 100 | > 100 | – | – | – |
| CCC(CC(C)C)Nc1ccc(NC(CC)CC(C)C)cc1 (configuration not stated) | 24.8 | 65.6 µM | 14.1 µM | 28.3 µM | 15.6 | 30.2 | 15.6 | 29.1 µM | 13.7 | 28.1 µM | 13.3 | 28.4 | 10.6 | 24.3 µM | – | 40.9 | 26.6 | 17.5 | 13 | – |
| CC(=O)/C(=C\c1ccc(Cl)c(Cl)c1)C(=O)C(C)CN(C)C (configuration not stated) | – | 35.7 µM | – | 6.79 µM | – | 5.35 | – | 23.8 µM | – | 21 µM | – | 23.7 | – | – | 8.92 µM | 48.9 | 12.9 | – | – | – |
| Cc1nc2ccc(Cl)cc2c2c1CCN2c1ccccc1 | – | 46.6 µM | – | 17.6 µM | – | 39.1 | – | – | – | 28.5 µM | – | 29.1 | – | 23.6 µM | 31.2 µM | 23.9 | 35.2 | – | – | – |
| CC1(C2CCC3(C)OC3C2)CO1 (configuration not stated) | – | > 100 µM | – | > 100 µM | – | > 100 | – | > 100 µM | – | > 100 µM | – | > 100 | – | > 100 µM | – | > 100 | > 100 | – | – | – |
| O=C(CC1Sc2ccccc2NC1=O)Nc1ccc(Cl)cc1 (configuration not stated) | – | > 100 µM | – | > 100 µM | – | > 100 | – | > 100 µM | – | > 100 µM | – | > 100 | – | > 100 µM | – | > 100 | > 100 | – | – | – |
| O=C1C=CC(=O)c2c(O)c(N3CCN(CCOCCO)CC3)c(Cl)c(O)c21 | 2.39 | 7.87 µM [middle of 4 runs] | 333 nM [middle of 4 runs] | 801 nM [middle of 4 runs] | – | – | 1.26 | 3.32 µM [middle of 4 runs] | – | 2.89 µM [middle of 4 runs] | – | – | – | 3.01 µM [middle of 4 runs] | 2.11 µM and 1.49 µM and 3.91 µM | – | – | 1.57 | – | 0.722 µM and 0.422 µM and 2.27 µM |
| O=C1c2ccccc2C(=O)N1c1nc(-c2ccc(Cl)cc2)cc(N2N=C(c3ccc(Br)cc3)CC2c2ccccc2)n1 (configuration not stated) | – | 17.4 µM | – | > 20.5 µM | – | > 63.9 | – | – | – | 21.4 µM | – | > 41.4 | – | 11.5 µM | 16.8 µM | > 41.9 | 5.99 | – | – | – |
| CC1CC/C(=C\c2ccc(Cl)cc2)c2nc(N)c(C#N)c(-c3ccc(Cl)cc3)c21 (configuration not stated) | – | > 100 µM | – | > 100 µM | – | > 100 | – | > 100 µM | – | > 100 µM | – | > 100 | – | > 100 µM | > 100 µM | – | > 100 | – | – | – |
| Cn1c2ccccc2n2c3ncccc3c(=S)c(C#N)c12 | – | > 100 µM | – | > 100 µM | – | > 100 | – | > 100 µM | – | > 100 µM | – | – | – | > 100 µM | > 100 µM | > 100 | > 100 | – | – | – |
| C/C(Nc1ccc(Cl)cc1Cl)=C1/CCOC1=O | – | > 100 µM | – | > 100 µM | – | > 100 | – | – | – | > 100 µM | – | > 100 | – | > 100 µM | 63.3 µM | > 100 | 66.5 | – | – | – |
| O=C(/C=C/c1cccs1)c1ccccc1Cl | – | 1.4 µM | – | 25.7 µM | – | 20.4 | – | 28.9 µM | – | 38.8 µM | – | 34.2 | – | 27.5 µM | – | 40.8 | 27.7 | – | – | – |

— PubChem BioAssay (NCI)
